Assay in all cases: growth of human tumour cells (NCI), 48 h
The test system of assay [1] is ACHN renal.
For assay [2], the system named is COLO 205 colon.
Assay [3] deals with HCT-116 colon.
For assay [4], the system named is HT29 colon.
The test system of assay [5] is LOX IMVI melanoma.
The test system of assay [6] is MCF7 breast.
Assay [7] has as its system NCI-H23 lung.
Assay [8] concerns NCI-H522 lung.
The subject of assay [9] is OVCAR-3 ovarian.
The test system of assay [10] is OVCAR-4 ovarian.
In assay [11] the test system is RXF 393 renal.
For assay [12], the system named is SF-295 CNS.
Assay [13] deals with SK-MEL-28 melanoma.
Assay [14] relates to SN12C renal.
The subject of assay [15] is SR leukemia.
The subject of assay [16] is T-47D breast.
Assay [17] relates to TK-10 renal.
In assay [18] the test system is SF-268 CNS.

The source of these data is PubChem BioAssay (NCI).

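96-well plates; 48 h exposure; 5 concentrations. Endpoints by linear interpolation between flanking doses. Not reached: highest tested concentration assigned. TGI: total growth inhibition.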

Consider `C[N+]1(C)C2CC(OC(=O)C(CO)c3ccccc3)CC1C1OC12` (stereo unspecified), for which the TGI in [1], in assay [2], in assay [3], in assay [4], in [5] and in assay [6] was more than 100 µM in each case. The TGI in assay [7], in assay [8], in assay [9], in assay [10], in assay [11] and in [12] was more than 100 µM in each case. The TGI in assay [13], in [14], in assay [15], in [16] and in [17] was more than 100 µM each time.
Consider `Cc1ccc(-c2n[nH]c(=O)n2/N=C\c2ccccc2O)cc1`, for which the TGI in [1], in [2], in assay [3], in [4], in assay [6] and in assay [7] was more than 100 µM each time. Moreover, the TGI in assay [8], in assay [9], in assay [10], in assay [11], in [18] and in [12] was more than 100 µM in each case. For the same molecule, the TGI in [13], in assay [14], in assay [15], in assay [16] and in assay [17] was more than 100 µM in each case.
For the molecule `Cc1nc2ccc(F)cc2c2c1CCS2`, the TGI in assay [1], in assay [2], in assay [3], in assay [4], in [5] and in [6] was more than 100 µM throughout. Moreover, the TGI in assay [7] was more than 100 µM; in [8], more than 100 µM; in assay [9], more than 100 µM; in assay [10], more than 100 µM; in [11] it was 73.9 µM; in assay [18], more than 100 µM. For the same molecule, the TGI in [12], in [13], in assay [15], in [16] and in assay [17] was more than 100 µM in each case.
As for `Cc1ccc2c(c1C)C(=O)C1(C2)Cc2ccc3c(c2C1=O)CCC3` (stereo unspecified), the TGI in assay [1], in assay [2], in assay [3], in assay [4], in assay [6] and in assay [7] was more than 100 µM in each case. Besides, the TGI in assay [8], in assay [9], in [10], in assay [11], in assay [18] and in assay [12] was more than 100 µM each time. The TGI in [13], in [14], in assay [15], in assay [16] and in [17] was more than 100 µM each time.
As for `CCOC(=O)c1nc2ccccc2nc1Oc1cc(OC)cc(OC)c1`, the TGI in assay [1], in assay [2], in assay [3], in [4], in assay [5] and in assay [6] was more than 100 µM each time. For the same molecule, the TGI in assay [8], in [9], in assay [10], in [11], in assay [18] and in assay [12] was more than 100 µM throughout. For the same molecule, the TGI in [13], in [14], in [15], in assay [16] and in assay [17] was more than 100 µM each time.
With `CCNC1=C(NC(=O)c2ccc(F)cc2)C(=O)c2ccccc2C1=O`, the TGI in [1] was more than 100 µM; in assay [2], more than 100 µM; in assay [3], more than 100 µM; in assay [4], 53.6 µM; in assay [6], more than 100 µM; in assay [7], more than 100 µM. In addition, the TGI in assay [8] was more than 100 µM; in assay [9], 85.7 µM; in assay [10], more than 100 µM; in assay [11], 84.4 µM; in assay [18] it was more than 100 µM; in [12], more than 100 µM. Besides, the TGI in assay [13], in [14], in [15], in [16] and in assay [17] was more than 100 µM each time.
Take `O=C(CCC(=O)c1ccsc1)c1ccsc1`: the TGI in assay [1], in [2], in assay [3], in assay [5], in assay [6] and in assay [7] was more than 100 µM throughout. The TGI in assay [8], in assay [9], in [10], in assay [11], in assay [18] and in [12] was more than 100 µM throughout. The TGI in assay [13], in assay [14], in assay [15], in assay [16] and in assay [17] was more than 100 µM in each case.
Consider `CCCN(CCC)C(=S)Sc1nc(C)nc(N2CCN(c3nc(C)nc(SC(=S)N(CCC)CCC)c3[N+](=O)[O-])CC2)c1[N+](=O)[O-]`, for which the TGI stood at 40.9 µM in assay [1]; 19 µM in [2]; 16.9 µM in assay [3]; 21.7 µM in [4]; 2.27 µM in assay [5]; 11.9 µM in assay [6]. In addition, the TGI in assay [7] is 36.8 µM; in [8], 3.17 µM; in assay [10], 76.5 µM; in [11] it was more than 29.5 µM; in assay [18] it was 98.5 µM; in assay [12], more than 58.1 µM. Further, the TGI is 36.9 µM in assay [13]; more than 39.8 µM in [14]; more than 81.9 µM in assay [15]; 39.9 µM in assay [16]; 41.9 µM in [17].
